Laboratory results taken from publication PMC10020352 (Frontiers in Pharmacology, 2023).
Where a SMILES comes first, the peptide text is derived from it. [ ]: non-standard residue; d: D form. Phe(4-NO2) = N[C@@H](Cc1ccc([N+](=O)[O-])cc1)C(=O)O; Phe(4-Cl) = N[C@@H](Cc1ccc(Cl)cc1)C(=O)O; Phe(4-F) = N[C@@H](Cc1ccc(F)cc1)C(=O)O; NMeR = CN[C@@H](CCCNC(=N)N)C(=O)O; Aoc = NCCCCCCCC(=O)O; Ahx = NCCCCCC(=O)O; Sar = CNCC(=O)O

What was measured:
[1] = molecular target: T1, bovine pancreatic trypsin (Bos taurus, UniProt P00760); assay: Metabolic stability in trypsin; type: in vitro ADME; settings: bovine pancreatic trypsin 2.5 μg/mL, pH 8-8.5, 37°C, peptide 100 μM; read-out: Stability (t1/2) Trypsin
T1 sequence (P00760 24-246): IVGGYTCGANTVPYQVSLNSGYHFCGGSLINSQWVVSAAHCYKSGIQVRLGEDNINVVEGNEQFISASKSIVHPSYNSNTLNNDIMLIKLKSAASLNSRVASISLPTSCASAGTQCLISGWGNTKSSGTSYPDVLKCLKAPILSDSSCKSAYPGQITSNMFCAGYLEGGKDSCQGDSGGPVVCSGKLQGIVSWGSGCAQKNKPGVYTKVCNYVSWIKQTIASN
Description: (§1) Whole blood was collected in-house from adult mixed-gender Wistar rats (RRID: RGD_150520162), and plasma was prepared in 0.2% EDTA as per standard practice. Peptides (final 100 μM) were incubated with pooled rat plasma at 37°C. Samples were collected at different time intervals 0, 5, 10, 15, 30, 60, and 120 min. At each time point, collected samples were immediately added to three volumes of cold ACN. This mixture was vortexed for 30 s and then centrifuged at room temperature (13 K rpm, 5 min). The supernatant was taken and directly placed in glass HPLC vials for LCMS analysis. The protocol for the trypsin stability assay was as for the plasma stability assay except for the […] (bovine pancreatic trypsin 2.5 μg/mL in NH4HCO3 buffer, approx. pH 8–8.5, 37°C).
(§2) Relative concentrations of each peptide from stability assays in plasma or trypsin were analysed using an Agilent binary LC system consisting of an Agilent 1290 Infinity LC pump, Agilent 1,290 auto-sampler coupled with Triple Quad Mass-Spectrometer (MS, model 6460, Agilent Technologies). A bidentate C18 HPLC column (Cogent, 100 Å, […]) with a binary solvent gradient composed of Solvent: A 0.1%v/v formic acid in MQ water and Solvent B: 0.1% v/v formic acid in ACN was used for the separation. The MS parameters were optimised for all compounds to obtain the highest signal in positive Total Ion Current (TIC) mode. Data were analysed using a combination of Microsoft Excel and GraphPad Prism software packages. Data was normalised to time point zero (immediately after compound addition) and expressed in percentages from t = 0. Half-lives were calculated in GraphPad Prism software (v8.3).

DOP receptor = molecular target: T2, DOP receptor (Homo sapiens, UniProt P41143); assay: cell-based
T2 construct: expressed in transfected cells; host or cells: HEK293
T2 sequence (P41143 whole entry): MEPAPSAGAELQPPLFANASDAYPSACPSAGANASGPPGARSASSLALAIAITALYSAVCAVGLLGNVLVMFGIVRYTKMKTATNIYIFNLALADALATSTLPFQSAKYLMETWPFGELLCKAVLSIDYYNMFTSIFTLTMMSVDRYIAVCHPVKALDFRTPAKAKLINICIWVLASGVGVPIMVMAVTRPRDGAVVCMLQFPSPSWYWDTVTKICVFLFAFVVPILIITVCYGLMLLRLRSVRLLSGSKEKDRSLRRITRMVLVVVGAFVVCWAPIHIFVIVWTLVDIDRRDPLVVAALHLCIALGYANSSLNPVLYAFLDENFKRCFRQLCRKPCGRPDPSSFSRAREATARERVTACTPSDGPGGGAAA

MOP receptor = molecular target: T3, MOP receptor (Homo sapiens, UniProt P35372); assay: cell-based
T3 construct: expressed in transfected cells; host or cells: HEK293
T3 sequence (P35372 whole entry): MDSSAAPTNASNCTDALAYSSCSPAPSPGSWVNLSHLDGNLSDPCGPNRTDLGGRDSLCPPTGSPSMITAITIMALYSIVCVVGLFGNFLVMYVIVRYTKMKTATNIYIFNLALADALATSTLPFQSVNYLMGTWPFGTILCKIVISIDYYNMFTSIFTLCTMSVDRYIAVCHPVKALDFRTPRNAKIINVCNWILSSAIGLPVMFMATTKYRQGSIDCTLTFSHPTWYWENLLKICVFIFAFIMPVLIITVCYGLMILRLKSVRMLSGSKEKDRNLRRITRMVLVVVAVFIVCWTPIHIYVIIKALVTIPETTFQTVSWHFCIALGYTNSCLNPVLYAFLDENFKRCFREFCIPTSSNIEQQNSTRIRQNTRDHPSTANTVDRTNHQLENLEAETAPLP

KOP receptor = KOP receptor (Homo sapiens, UniProt P41145); assay: cell-based; type: cell-based
KOP receptor, sequence (P41145 whole entry): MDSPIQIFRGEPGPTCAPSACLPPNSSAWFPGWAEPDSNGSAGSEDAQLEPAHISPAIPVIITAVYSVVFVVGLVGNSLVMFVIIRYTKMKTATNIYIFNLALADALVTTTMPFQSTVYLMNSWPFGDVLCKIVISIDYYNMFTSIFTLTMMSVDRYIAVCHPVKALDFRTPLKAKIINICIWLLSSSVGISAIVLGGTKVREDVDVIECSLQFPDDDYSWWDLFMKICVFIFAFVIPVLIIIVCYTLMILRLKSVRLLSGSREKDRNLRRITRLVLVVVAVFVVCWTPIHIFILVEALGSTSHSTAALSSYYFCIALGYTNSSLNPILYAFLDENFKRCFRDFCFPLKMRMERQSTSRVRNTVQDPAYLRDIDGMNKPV

[2] = Metabolic stability in rat plasma; type: in vitro ADME; settings: pooled rat plasma, 37°C, peptide 100 μM; for half-life: rat, plasma, read-out: Stability (t1/2) Plasma
Description: as §1, §2

[3] = tested on: FCA model of inflammatory nociception; settings: rat, in vivo

Structure (SMILES) | half-life [1] [min] | EC50 (DOP receptor) [µM] | Selectivity (fold) KOP/DOP (DOP receptor) [fold] | EC50 (MOP receptor) [µM] | Selectivity (fold) KOP/DOP (MOP receptor) [fold] | EC50 (KOP receptor) [nM] | half-life [2] [min] | Stability (t1/2) Plasma [2] [min] | selectivity for KOP receptor over MOP receptor and DOP receptor (KOP receptor) [fold] | paw withdrawal threshold in the contralateral (uninflamed, untreated) paw [3]
CC(C)C[C@@H](NC(=O)[C@@H](Cc1ccccc1)NC(=O)[C@H](N)Cc1ccccc1)C(=O)N[C@H](CCCCN)C(=O)N1CCC(N)(C(=O)O)CC1 [CR845, reference compound] | > 1000 |  |  |  |  |  |  |  |  | 
CC(C)C[C@H](NC(=O)[C@H](Cc1ccc([N+](=O)[O-])cc1)NC(=O)CNC(=O)CNC(=O)[C@@H](N)Cc1ccc(O)cc1)C(=O)N[C@@H](CCCNC(=N)N)C(=O)N[C@H](CCCNC(=N)N)C(N)=O [KA201] | 6.4 | 2.18 | 2 | 1.72 | 2 | 1090 |  |  |  | 
CC(C)C[C@H](NC(=O)[C@H](Cc1ccc([N+](=O)[O-])cc1)NC(=O)CNC(=O)CN(C)C(=O)[C@@H](N)Cc1ccc(O)cc1)C(=O)N[C@@H](CCCNC(=N)N)C(=O)N[C@H](CCCNC(=N)N)C(N)=O [KA202] | 8.5 | > 10 |  | > 10 |  | 930 |  |  |  | 
CC(C)C[C@H](NC(=O)[C@H](Cc1ccccc1)NC(=O)CN(C)C(=O)[C@@H](N)Cc1ccc(O)cc1)C(=O)N[C@@H](CCCNC(=N)N)C(=O)N[C@H](CCCNC(=N)N)C(N)=O [KA203] (H-Y[Sar]FLR[dR]-NH2) | 13.6 | > 10 |  | > 10 |  | 74.7 | 72 |  |  | 
CC(C)C[C@H](NC(=O)[C@H](Cc1ccc([N+](=O)[O-])cc1)NC(=O)CN(C)C(=O)[C@@H](N)Cc1ccc(O)cc1)C(=O)N[C@H](CCCNC(=N)N)C(=O)N[C@@H](CCCNC(=N)N)C(N)=O [KA205] (H-Y[Sar][Phe(4-NO2)]L[dR]R-NH2) | 3260 | 3.92 | 2 | > 10 |  | 1800 | 28.7 |  |  | 
CC(C)C[C@H](NC(=O)[C@H](Cc1ccc(Cl)cc1)NC(=O)CN(C)C(=O)[C@@H](N)Cc1ccc(O)cc1)C(=O)N[C@@H](CCCNC(=N)N)C(=O)N[C@H](CCCNC(=N)N)C(N)=O [KA206] (H-Y[Sar][Phe(4-Cl)]LR[dR]-NH2) | 15.9 | > 10 |  | > 10 |  | 6.1 | 31.9 |  |  | 
CC(C)C[C@H](NC(=O)[C@H](Cc1ccc(F)cc1)NC(=O)CN(C)C(=O)[C@@H](N)Cc1ccc(O)cc1)C(=O)N[C@@H](CCCNC(=N)N)C(=O)N[C@H](CCCNC(=N)N)C(N)=O [KA207] (H-Y[Sar][Phe(4-F)]LR[dR]-NH2) | 7.6 | > 10 |  | 3.45 | 515 | 6.7 | 38.2 |  |  | 
CC(C)C[C@H](NC(=O)[C@H](Cc1ccc(Cl)cc1)NC(=O)CN(C)C(=O)[C@@H](N)Cc1ccc(O)cc1)C(=O)N(C)[C@@H](CCCNC(=N)N)C(=O)N[C@H](CCCNC(=N)N)C(N)=O [KA301] (H-Y[Sar][Phe(4-Cl)]L[NMeR][dR]-NH2) |  |  |  |  |  |  | 2240 |  |  | 
CC(C)C[C@H](NC(=O)[C@H](Cc1ccc(F)cc1)NC(=O)CN(C)C(=O)[C@@H](N)Cc1ccc(O)cc1)C(=O)N(C)[C@@H](CCCNC(=N)N)C(=O)N[C@H](CCCNC(=N)N)C(N)=O [KA302] (H-Y[Sar][Phe(4-F)]L[NMeR][dR]-NH2) | > 1000 | 1.66 | 143 | 4 | 344 | 11.6 |  | 323.9 |  | 
CC(C)C[C@H](NC(=O)[C@H](Cc1ccc([N+](=O)[O-])cc1)NC(=O)CN(C)C(=O)[C@@H](N)Cc1ccc(O)cc1)C(=O)N(C)[C@@H](CCCNC(=N)N)C(=O)N[C@H](CCCNC(=N)N)C(N)=O [KA303] (H-Y[Sar][Phe(4-NO2)]L[NMeR][dR]-NH2) | 12.1 | 1.32 | 98 | > 10 |  | 13.5 | 168 |  |  | 
CC(C)C[C@H](NC(=O)[C@H](Cc1ccc(Cl)cc1)NC(=O)CN(C)C(=O)[C@@H](N)Cc1ccc(O)cc1)C(=O)N[C@@H](CCCNC(=N)N)C(=O)N[C@H](CCCNC(=N)N)C(=O)NCCCCCC(N)=O [KA304] (H-Y[Sar][Phe(4-Cl)]LR[dR][Ahx]-NH2) | 8.33 | 1.6 | 440 | 0.363 | 100 | 3.64 | 79 |  |  | 
CC(C)C[C@H](NC(=O)[C@H](Cc1ccc(Cl)cc1)NC(=O)CN(C)C(=O)[C@@H](N)Cc1ccc(O)cc1)C(=O)N[C@@H](CCCCN)C(=O)N[C@H](CCCNC(=N)N)C(N)=O [KA306] (H-Y[Sar][Phe(4-Cl)]LK[dR]-NH2) | 69.9 | > 10 |  | > 10 |  | 26 | 160 |  |  | 
CC(C)C[C@H](NC(=O)[C@H](Cc1ccc(Cl)cc1)NC(=O)[C@H](C)NC(=O)[C@@H](N)Cc1ccc(O)cc1)C(=O)N[C@@H](CCCNC(=N)N)C(=O)N[C@H](CCCNC(=N)N)C(N)=O [KA307] (H-YA[Phe(4-Cl)]LR[dR]-NH2) |  | > 10 |  | 1.87 | 2 | 1040 |  |  |  | 
C[C@@H](O)[C@H](NC(=O)[C@H](Cc1ccc(Cl)cc1)NC(=O)CN(C)C(=O)[C@@H](N)Cc1ccc(O)cc1)C(=O)N[C@@H](CCCNC(=N)N)C(=O)N[C@H](CCCNC(=N)N)C(N)=O [KA308] (H-Y[Sar][Phe(4-Cl)]TR[dR]-NH2) |  | > 10 |  | 5.82 | 25 | 230 |  |  |  | 
CC(C)C[C@H](NC(=O)[C@H](Cc1ccc(Cl)cc1)NC(=O)CN(C)C(=O)[C@@H](N)Cc1ccc(O)cc1)C(=O)N[C@@H](CCCNC(=N)N)C(=O)N(C)[C@@H](CCCNC(=N)N)C(N)=O [KA309] (H-Y[Sar][Phe(4-Cl)]LR[NMeR]-NH2) | > 1000 | > 10 |  | > 10 |  | 3.9 |  | 174.1 |  | 
CC(C)C[C@H](NC(=O)[C@H](Cc1ccc([N+](=O)[O-])cc1)NC(=O)CN(C)C(=O)[C@@H](N)Cc1ccc(O)cc1)C(=O)N[C@@H](CCCNC(=N)N)C(=O)N(C)[C@@H](CCCNC(=N)N)C(N)=O [KA310] (H-Y[Sar][Phe(4-NO2)]LR[NMeR]-NH2) | > 1000 | > 10 |  | > 10 |  | 1.77 |  |  | > 1000 | 
CC(C)C[C@H](NC(=O)[C@H](Cc1ccc(Cl)cc1)NC(=O)CN(C)C(=O)[C@@H](N)Cc1ccc(O)cc1)C(=O)N[C@@H](CCCNC(=N)N)C(=O)N(C)[C@@H](CCCNC(=N)N)C(=O)NCCCCCCCC(N)=O [KA312] (H-Y[Sar][Phe(4-Cl)]LR[NMeR][Aoc]-NH2) | 445 | > 10 |  | > 10 |  | 3.79 | 15.6 |  |  | 
CC(C)C[C@H](NC(=O)[C@H](Cc1ccc([N+](=O)[O-])cc1)NC(=O)CN(C)C(=O)[C@@H](N)Cc1ccc(O)cc1)C(=O)N[C@@H](CCCNC(=N)N)C(=O)N(C)[C@@H](CCCNC(=N)N)C(=O)NCCCCCCCC(N)=O [KA313] (H-Y[Sar][Phe(4-NO2)]LR[NMeR][Aoc]-NH2) | > 1000 | > 10 |  | > 10 |  | 4.45 | 12.5 |  |  | 
CC(C)C[C@H](NC(=O)[C@H](Cc1ccc([N+](=O)[O-])cc1)NC(=O)CN(C)C(=O)[C@@H](N)Cc1ccc(O)cc1)C(=O)N[C@@H](CCCNC(=N)N)C(=O)N[C@H](CCCNC(=N)N)C(=O)NCCCCCCCC(N)=O [KA314] (H-Y[Sar][Phe(4-NO2)]LR[dR][Aoc]-NH2) | 16.1 | > 10 |  | > 10 |  | 2.49 | 18.6 |  |  | 
CN1CC[C@]23c4c5ccc(O)c4O[C@H]2[C@@H](O)C=C[C@H]3[C@H]1C5 [Morphine, reference compound] |  |  |  |  |  |  |  |  |  | significantly reduced
